“And” between values parts separate entries of the source, which are not always exact repeats. Equal values may be shown once.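 In this assay, cells in 96-well plates receive the compound at five concentrations for 48 hours. Endpoints are linearly interpolated between the surrounding concentrations. GI50 = concentration required for 50% inhibition of growth.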 The source made the active and inactive calls. Rule as the data show it: active = GI50 up to about 1.1 µM and inactive = higher.
Columns and labels:
Assay in all cases: NCI tumour cell line growth inhibition, 48 h
786-0 = test system: 786-0
A549 = test system: A549
ACHN = test system: ACHN
CAKI-1 = test system: CAKI-1
CCRF-CEM = test system: CCRF-CEM
COLO 205 = test system: COLO 205
DU-145 = test system: DU-145
HCT-116 = test system: HCT-116
HCT-15 = test system: HCT-15
HL-60 = test system: HL-60
HOP-62 = test system: HOP-62
HOP-92 = test system: HOP-92
HT-29 = test system: HT-29
Hs-578T = test system: Hs-578T
IGROV-1 = test system: IGROV-1
K562 = test system: K562
KM12 = test system: KM12
LOX IMVI = test system: LOX IMVI
M14 = test system: M14
MCF7 = test system: MCF7
MDA-MB-231 = test system: MDA-MB-231
MDA-MB-435 = test system: MDA-MB-435
MDA-N = test system: MDA-N
MOLT-4 = test system: MOLT-4
NCI-H226 = test system: NCI-H226
NCI-H23 = test system: NCI-H23
NCI-H460 = test system: NCI-H460
NCI-H522 = test system: NCI-H522
NCI/ADR-RES = test system: NCI/ADR-RES
OVCAR-3 = test system: OVCAR-3
OVCAR-5 = test system: OVCAR-5
OVCAR-8 = test system: OVCAR-8
PC-3 = test system: PC-3
RPMI-8226 = test system: RPMI-8226
RXF 393 = test system: RXF 393
SF-268 = test system: SF-268
SF-295 = test system: SF-295
SF-539 = test system: SF-539
SK-MEL-2 = test system: SK-MEL-2
SK-MEL-5 = test system: SK-MEL-5
SK-OV-3 = test system: SK-OV-3
SN12C = test system: SN12C
SNB-19 = test system: SNB-19
SR = test system: SR
SW-620 = test system: SW-620
T47D = test system: T47D
U-251 = test system: U-251
UACC-257 = test system: UACC-257
UACC-62 = test system: UACC-62
UO-31 = test system: UO-31
A498 = test system: A498
BT-549 = test system: BT-549
EKVX = test system: EKVX
HCC 2998 = test system: HCC 2998
Malme-3M = test system: Malme-3M
OVCAR-4 = test system: OVCAR-4
SK-MEL-28 = test system: SK-MEL-28
TK-10 = test system: TK-10
SNB-75 = test system: SNB-75

For `COc1ccccc1-c1cc(=O)c2ccccc2n1C1CC1`, the GI50 (786-0) was 3.99 µM (inactive), the GI50 (A549) was 2.84 µM (inactive) and the GI50 (ACHN) was 2.2 µM (inactive). The GI50 (CAKI-1) was 3.49 µM (inactive), the GI50 (CCRF-CEM) was 4.83 µM (inactive) and the GI50 (COLO 205) was 1.57 µM (inactive). For the same compound, the GI50 (DU-145) was 3.5 µM (inactive), the GI50 (HCT-116) was 1.23 µM (inactive) and the GI50 (HCT-15) was 2.55 µM. The GI50 (HL-60) was 13.7 µM (inactive), the GI50 (HOP-62) was 3.95 µM (inactive) and the GI50 (HOP-92) was 1.78 µM (inactive). For the same compound, the GI50 (HT-29) was 0.0782 µM (active), the GI50 (Hs-578T) was 5.3 µM (inactive) and the GI50 (IGROV-1) was 4.43 µM (inactive). The GI50 (K562) was 9.68 µM (inactive), the GI50 (KM12) was 2.37 µM (inactive) and the GI50 (LOX IMVI) was 3.89 µM (inactive). The GI50 (M14) was 4.4 µM (inactive), the GI50 (MCF7) was 1.98 µM (inactive) and the GI50 (MDA-MB-231) was 3.76 µM (inactive). The GI50 (MDA-MB-435) was 3.42 µM (inactive), the GI50 (MDA-N) was 4.06 µM (inactive) and the GI50 (MOLT-4) was 19.4 µM (inactive). The GI50 (NCI-H226) was 2.42 µM (inactive), the GI50 (NCI-H23) was 4.99 µM (inactive) and the GI50 (NCI-H460) was 2.74 µM (inactive). The GI50 (NCI-H522) was 0.865 µM (active), the GI50 (NCI/ADR-RES) was 5.38 µM (inactive) and the GI50 (OVCAR-3) was 1.75 µM (inactive). The GI50 (OVCAR-5) was 2.72 µM (inactive), the GI50 (OVCAR-8) was 3.79 µM (inactive) and the GI50 (PC-3) was 4.15 µM (inactive). The GI50 (RPMI-8226) was 1.71 µM (inactive), the GI50 (RXF 393) was 1.84 µM (inactive) and the GI50 (SF-268) was 5.01 µM (inactive). For the same compound, the GI50 (SF-295) was 2 µM (inactive), the GI50 (SF-539) was 4.6 µM (inactive) and the GI50 (SK-MEL-2) was 2.69 µM (inactive). For the same compound, the GI50 (SK-MEL-5) was 4.52 µM (inactive), the GI50 (SK-OV-3) was 6.73 µM (inactive) and the GI50 (SN12C) was 5.08 µM (inactive). The GI50 (SNB-19) was 4.86 µM (inactive), the GI50 (SR) was 2.95 µM (inactive) and the GI50 (SW-620) was 3.13 µM (inactive). For the same compound, the GI50 (T47D) was 2.37 µM (inactive), the GI50 (U-251) was 3.54 µM (inactive) and the GI50 (UACC-257) was 8.2 µM (inactive). The GI50 (UACC-62) was 2.77 µM (inactive) and the GI50 (UO-31) was 3.85 µM (inactive).
`CC(C)=CCCC1(C)C2COC(=O)C21` (stereo not given) was tested, and the GI50 (786-0) was > 100 µM (inactive) and 63.2 µM (inactive), the GI50 (A498) was > 100 µM (inactive) and the GI50 (ACHN) was > 100 µM (inactive) and 68.9 µM (inactive). For the same compound, the GI50 (BT-549) was > 100 µM (inactive), the GI50 (DU-145) was > 100 µM (inactive) and the GI50 (EKVX) was 67.5 µM (inactive). For the same compound, the GI50 (HCC 2998) was > 100 µM (inactive), the GI50 (HT-29) was > 100 µM (inactive) and the GI50 (IGROV-1) was 53.7 µM (inactive). The GI50 (MCF7) was 31.3 µM (inactive) and 33.9 µM (inactive), the GI50 (MDA-MB-231) was > 100 µM (inactive) and the GI50 (Malme-3M) was > 100 µM (inactive). For the same compound, the GI50 (OVCAR-4) was > 100 µM (inactive) and 80 µM (inactive), the GI50 (OVCAR-5) was > 100 µM (inactive) and the GI50 (PC-3) was > 100 µM (inactive). The GI50 (RXF 393) was > 100 µM (inactive), the GI50 (SF-268) was > 100 µM (inactive) and the GI50 (SF-295) was > 100 µM (inactive) and 63.2 µM (inactive). The GI50 (SK-MEL-28) was > 100 µM (inactive), the GI50 (SK-MEL-2) was > 100 µM (inactive) and the GI50 (SK-OV-3) was > 100 µM (inactive). For the same compound, the GI50 (SNB-19) was > 100 µM (inactive), the GI50 (SW-620) was 64.7 µM (inactive) and the GI50 (TK-10) was > 100 µM (inactive). The GI50 (UACC-257) was > 100 µM (inactive), the GI50 (UACC-62) was > 100 µM (inactive) and the GI50 (UO-31) was > 100 µM (inactive).
`COC(=O)c1nc(Cl)nc(Cl)c1Cl` was tested, and the GI50 (786-0) was 17.3 µM (inactive), the GI50 (A549) was 44.1 µM (inactive) and the GI50 (ACHN) was 14.4 µM (inactive). For the same compound, the GI50 (CAKI-1) was 18.2 µM (inactive), the GI50 (CCRF-CEM) was 6.49 µM (inactive) and the GI50 (COLO 205) was 18.6 µM (inactive). The GI50 (DU-145) was 70.3 µM (inactive), the GI50 (HCC 2998) was 22 µM (inactive) and the GI50 (HCT-116) was 18.2 µM (inactive). The GI50 (HCT-15) was 21.9 µM, the GI50 (HOP-62) was 30.2 µM (inactive) and the GI50 (HOP-92) was 19.4 µM (inactive). For the same compound, the GI50 (HT-29) was 22.5 µM (inactive), the GI50 (Hs-578T) was 21.8 µM (inactive) and the GI50 (IGROV-1) was 22.8 µM (inactive). The GI50 (K562) was 12.2 µM (inactive), the GI50 (KM12) was 22.2 µM (inactive) and the GI50 (LOX IMVI) was 13.4 µM (inactive). The GI50 (M14) was 20.7 µM (inactive), the GI50 (MCF7) was 28.2 µM (inactive) and the GI50 (MDA-MB-231) was 17.6 µM (inactive). The GI50 (MDA-MB-435) was 15.8 µM (inactive), the GI50 (MDA-N) was 29.5 µM (inactive) and the GI50 (MOLT-4) was 10.5 µM (inactive). The GI50 (Malme-3M) was 20.8 µM (inactive), the GI50 (NCI-H226) was 27 µM (inactive) and the GI50 (NCI-H23) was 44.7 µM (inactive). The GI50 (NCI-H460) was 32.2 µM (inactive), the GI50 (NCI-H522) was 19.3 µM (inactive) and the GI50 (NCI/ADR-RES) was 33.8 µM (inactive). The GI50 (OVCAR-3) was 2.02 µM (inactive), the GI50 (OVCAR-4) was 19.5 µM (inactive) and the GI50 (OVCAR-5) was 23.5 µM (inactive). For the same compound, the GI50 (OVCAR-8) was 21 µM (inactive), the GI50 (PC-3) was 14.4 µM (inactive) and the GI50 (RPMI-8226) was 1.29 µM (inactive). The GI50 (RXF 393) was 14.4 µM (inactive), the GI50 (SF-268) was 19.1 µM (inactive) and the GI50 (SF-295) was 42.3 µM (inactive). For the same compound, the GI50 (SF-539) was 24.5 µM (inactive), the GI50 (SK-MEL-28) was 21.1 µM (inactive) and the GI50 (SK-MEL-5) was 18.3 µM (inactive). For the same compound, the GI50 (SK-OV-3) was 41.9 µM (inactive), the GI50 (SN12C) was 20.9 µM (inactive) and the GI50 (SNB-19) was 83.8 µM (inactive). For the same compound, the GI50 (SNB-75) was 87.7 µM (inactive), the GI50 (SR) was 15.1 µM (inactive) and the GI50 (SW-620) was 16.2 µM (inactive). For the same compound, the GI50 (T47D) was 24.3 µM (inactive), the GI50 (TK-10) was 21.2 µM (inactive) and the GI50 (U-251) was 26.1 µM (inactive). The GI50 (UACC-62) was > 10 µM (inactive) and the GI50 (UO-31) was 19.2 µM (inactive).

Source: ChEMBL document CHEMBL1201862, “PubChem BioAssay data set” (2004)
